In patent US20260109712A1, “RIFAMYCINS FOR NONTUBERCULOUS MYCOBACTERIA” (priority 2022, published 2026):
In brackets after ≈: the same amount, converted by molar mass. Where two headings read alike, the source gives them in different places.

Key:
[1] = test system: M. abscessus subsp. massiliense CCUG 48898T; experiment: MIC, anti-mycobacterial profiling; type: cell-based, Mycobacterium abscessus; settings: for MIC: mean of two experiments
Description: (§1) MIC determination was carried out in 96-well plate format as previously described.^[13-14] 96-well plates were initially set up with 100 μL of 7H9 per well. For each compound, a ten-point two-fold dilution series starting at twice the desired highest concentration was dispensed onto the 96-well plates using a Tecan D300e Digital Dispenser, with the DMSO concentration normalized to 2%. M. abscessus culture grown to mid-log phase (OD600=0.4-0.6) was diluted to OD600=0.1 (1×10^7 CFU/mL). 100 μL of the resulting bacteria suspension was dispensed onto the 96-well plates containing compounds to give a final volume of 200 μL per well with an initial OD600=0.05 (5×10^6 CFU/mL) and final DMSO concentration of 1%. Final compound concentration ranges were typically 50-0.098 μM, 6.25-0.012 μM, 0.006-3.13 μM, or 0.003-1.56 μM. Untreated control wells are included on each plate that contain bacteria suspension and 1% DMSO. Plates were sealed with parafilm, stored in boxes with wet paper towels and incubated at 37° C. with shaking (110 RPM). Plates were incubated for 3 days. To determine growth, OD600 was measured using a Tecan Infinite M200 plate reader on Day 0 and Day 3. Two biological replicates were performed. Clarithromycin was included in each experiment as a positive control.
(§2) For each well on the 96-well plate, bacterial growth was calculated by subtracting the Day 0 OD600 value from the Day 3 OD600 value. For each compound series, the bacterial growth values for the untreated control wells were averaged to give the average drug-free bacterial growth. For compound-containing wells, percentage growth was calculated by dividing their growth values by the average drug-free bacterial growth for the compound series and multiplying by 100. For each compound series, we plotted percentage growth versus compound concentration. By visual inspection of the dose-response curve, we determined the MIC of a compound as the compound concentrations that would result in 90% growth inhibition.
(§3) The MIC data was determined using methods disclosed in Example 1.

[2] = test system: M. abscessus subsp. bolletii CCUG 50184T; experiment: MIC, anti-mycobacterial profiling; type: cell-based, Mycobacterium abscessus; settings: for MIC: mean of two experiments
Description: as §1, §2, §3

M. chimaera CCUG 50989T = experiment: MIC, anti-mycobacterial profiling; type: cell-based, Mycobacterium chimaera; settings: for MIC: mean of two experiments
[3] = test system: M. intracellulare ATCC 13950; experiment: MIC, anti-mycobacterial profiling; type: cell-based, Mycobacterium intracellulare; settings: for MIC: mean of two experiments
M. fortuitum ATCC 6841 = experiment: MIC, anti-mycobacterial profiling; type: cell-based, Mycobacterium fortuitum; settings: for MIC: mean of two experiments
M. kansasii ATCC 12478 = experiment: MIC, anti-mycobacterial profiling; type: cell-based, Mycobacterium kansasii; settings: for MIC: mean of two experiments
M. abscessus Bamboo = experiment: Caseum surrogate MBC90 (cMBC90) kill assay; type: cell-based, Mycobacterium abscessus; settings: for cMBC90/bMBC90: 5-day assays; for MBC: read-out: cMBC90
Excerpt: (§4) The surrogate matrix was generated as described previously from cultured THP-1 cells (ATCC TIB-202) (mBio, 2023, 14, e0059823). M. abscessus exponential cultures grown in Middlebrook 7H9 broth (Sigma Aldrich) (OD600 0.6-0.9) were spun down and resuspended in water to an OD600 of 7, 0.7, and 0.07. As described for the M. tuberculosis caseum surrogate assay (mnBio, 2023, 14, e0059823), the bacterial suspensions (at three different dilutions resulting in ˜10^9, 10^8, and 10^7 starting CFU/mL, represented by circle, square, and triangle indicators respectively) were added to the caseum surrogate in the ratio 2:1 (vol/wt), briefly homogenized with 1.4-mm zirconia beads, divided evenly into nine 1.5-mL microcentrifuge tubes, and incubated as standing cultures at 37° C. At the indicated time points, tubes were removed and used for CFU enumeration by plating on Middlebrook 7H11 agar (Sigma Aldrich). Separate tubes were used at each time point. To determine the kill curves, cultures with a starting CFU/mL of 10^8 were used (resulting in the middle curve with square indicators). Arrows indicate the time points when drugs were added and the end of the treatment. The experiment was repeated three times independently, yielding similar results. A representative example is shown. Dots and error bars represent means and standard deviations of three technical replicates, respectively.
FIGS. 29A-29M show the Dose-response kill curves against M. abscessus Bamboo in caseum surrogate. M. abscessus cultures were set up as described in the legend of FIG. 28. Bacterial cell suspensions were added to yield a starting CFU of 10^8/mL (FIG. 28, middle growth curve with square indicators). […] The shaded areas indicate drug concentration windows achieved in caseum in vivo. (Antimicrob. Agents Chemother., 2021, 65, e0050621; Antimicrob. Agents Chemother., 2022, 66, e0221221; PLoS Med., 2019, 16, e1002773; ACS Infect. Dis., 2016, 2, 251-267). The experiment was repeated twice independently, yielding similar results. A representative example is shown. Dots and error bars represent means and standard deviations of three technical replicates, respectively. Horizontal dotted lines indicate the cutoff for 1 log reduction in CFU compared to 10-day drug-free control culture. The cMBC90 values shown in Table 16 are the drug concentrations that reduce CFU by 90% relative to the CFU of drug-free controls at day 10. Since the cultures were in the stationary phase on day 5 when drug treatment started, the CFUs of the drug-free cultures at day 10 were similar to the CFUs of the drug-free cultures at day 5 (FIG. 28).
as §4, with “(doi: 10.1128/mbio.00598-23).” for “(mBio, 2023, 14, e0059823).”, “(doi: 10.1128/mbio.00598-23),” for “(mnBio, 2023, 14, e0059823),”, “CFU/mL)” for “CFU/mL, represented by circle, square, and triangle indicators respectively)”, “curves for the drugs,” for “curves,”, “used.” for “used (resulting in the middle curve with square indicators). Arrows indicate the time points when drugs were added and the end of the treatment.”, “results.” for “results. A representative example is shown. Dots and error bars represent means and standard deviations of three technical replicates, respectively.”
The experiment was repeated twice independently, yielding similar results. A representative example is shown. The cMBC90 values shown in Table 16 are the drug concentrations that reduce CFU by 90% relative to the CFU of drug-free controls at day 10. […]

[4] = test system: M. avium subsp. hominisuis MAC109; experiment: MIC, anti-mycobacterial profiling; type: cell-based, Mycobacterium avium; settings: for MIC: mean of two experiments
[5] = Mycobacterium intracellulare, ATCC13950
[6] = Mycolicibacterium fortuitum, ATCC6841
[7] = Mycobacterium kansasii, ATCC12478
[8] = Mycobacteroides abscessus, 120 h

Row | SMILES | cMBC90/bMBC90 (M. abscessus Bamboo) | MIC ([1]; Mycobacteroides abscessus) [µM] | MIC ([2]; Mycobacteroides abscessus) [µM] | MIC (M. chimaera CCUG 50989T; CCUG50989T) [µM] | MIC [3, 5] [µM] | MIC (M. fortuitum ATCC 6841; [6]) [µM] | MIC (M. kansasii ATCC 12478; [7]) [µM] | MBC (M. abscessus Bamboo; [8]) [µM] | MIC ([4]; Mycobacterium avium) [µM] | also measured
1 | CO[C@H]1/C=C/O[C@@]2(C)Oc3c(C)c(O)c4c(c3C2=O)C2=NC3(CCN(CC(C)C)CC3)NC2=C(NC(=O)/C(C)=C/C=C/[C@H](C)[C@H](O)[C@@H](C)[C@@H](O)[C@@H](C)[C@H](OC(=O)c2cccnc2)[C@@H]1C)C4=O [5m, 25-O-(3-pyridinecarbonyl)-25-O-desacetyrifabutin] | 12.5 | – | – | – | – | – | – | – | – | Fold improvement (RFB-5m vs RFB) [1]: 12; MIC [1]: 0.05 µM (≈ 0.0455 µg/mL); Fold improvement (RFB-5m vs RFB) [2]: 31; MIC [2]: 0.07 µM (≈ 0.0637 µg/mL); Fold improvement (RFB-5m vs RFB) (M. chimaera CCUG 50989T): 0.8; MIC (M. chimaera CCUG 50989T): 0.06 µM (≈ 0.0546 µg/mL); Fold improvement (RFB-5m vs RFB) [3]: 0.8; MIC [3]: 0.06 µM (≈ 0.0546 µg/mL); Fold improvement (RFB-5m vs RFB) (M. fortuitum ATCC 6841): 60; MIC (M. fortuitum ATCC 6841): 0.02 µM (≈ 0.0182 µg/mL); Fold improvement (RFB-5m vs RFB) (M. kansasii ATCC 12478): 1.0; MIC (M. kansasii ATCC 12478): 0.008 µM (≈ 0.00728 µg/mL); MBC (M. abscessus Bamboo; caseum surrogate, 5 days, 90% CFU reduction vs drug-free control): 2 µM (≈ 1.82 µg/mL); Fold improvement (RFB-5m vs RFB) [4]: 0.8; MIC [4]: 0.04 µM (≈ 0.0364 µg/mL)
2 | CC[C@H]1OC(=O)[C@H](C)[C@@H](O[C@H]2C[C@@](C)(OC)[C@@H](O)[C@H](C)O2)[C@H](C)[C@@H](O[C@@H]2O[C@H](C)C[C@H](N(C)C)[C@H]2O)[C@](C)(OC)C[C@@H](C)C(=O)[C@H](C)[C@@H](O)[C@]1(C)O [clarithromycin, reference compound] | 64 | 1.1 (≈ 0.823 µg/mL) | 4.3 (≈ 3.22 µg/mL) | 0.8 (≈ 0.598 µg/mL) | 0.4 (≈ 0.299 µg/mL) | 3.2 (≈ 2.39 µg/mL) | 0.3 (≈ 0.224 µg/mL) | 128 (≈ 95.7 µg/mL) | 0.5 (≈ 0.374 µg/mL) | –
3 | CO[C@H]1/C=C/O[C@@]2(C)Oc3c(C)c(O)c4c(c3C2=O)C2=NC3(CCN(CC(C)C)CC3)NC2=C(NC(=O)/C(C)=C\C=C\[C@H](C)[C@H](O)[C@@H](C)[C@@H](O)[C@@H](C)[C@H](OC(C)=O)[C@@H]1C)C4=O [rifabutin, reference compound] | 16 | 0.6 (≈ 0.508 µg/mL) | 2.2 (≈ 1.86 µg/mL) | 0.05 (≈ 0.0424 µg/mL) | 0.05 (≈ 0.0424 µg/mL) | 1.2 (≈ 1.02 µg/mL) | 0.008 (≈ 0.00678 µg/mL) | 72 (≈ 61 µg/mL) | 0.03 (≈ 0.0254 µg/mL) | –
